ChEMBL document CHEMBL6096710, “Re-evaluation of Cyclic Peptide Binding to Neurotensin Receptor 1 by Shifting the Peptide Register during Synthesis” (ACS Med Chem Lett, 2025)
Square brackets hold non-standard residues; d marks the D form. Peptide text beside a SMILES is read from it. NMeR = CN[C@@H](CCCNC(=N)N)C(=O)O; Tle = CC(C)(C)[C@H](N)C(=O)O

How the values were obtained:
[1] = Displacement of FAM-NT8-13 from rat NTSR1 stably expressed in HEK293F cells incubated for 1 hr under dark condition by mCherry fluorophore based competition binding assay; assay type: cell-based
[2] = target: Neurotensin receptor type 1 (Homo sapiens, UniProt P30989); test: Inhibition of NTSR1 (unknown origin)
Neurotensin receptor type 1, sequence (P30989 whole entry): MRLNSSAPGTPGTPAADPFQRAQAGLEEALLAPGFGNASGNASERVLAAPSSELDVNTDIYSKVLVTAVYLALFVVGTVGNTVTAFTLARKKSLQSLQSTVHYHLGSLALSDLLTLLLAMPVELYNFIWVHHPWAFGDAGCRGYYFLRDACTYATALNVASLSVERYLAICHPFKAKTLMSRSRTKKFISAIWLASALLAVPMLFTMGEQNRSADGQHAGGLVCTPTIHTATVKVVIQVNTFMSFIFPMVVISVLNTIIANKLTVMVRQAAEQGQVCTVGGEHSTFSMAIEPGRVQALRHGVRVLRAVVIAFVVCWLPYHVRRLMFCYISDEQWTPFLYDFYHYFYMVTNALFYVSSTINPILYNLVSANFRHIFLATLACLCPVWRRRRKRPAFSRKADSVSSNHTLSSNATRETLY

| Compound | Ki [1] [nM] | pKi [1] | Ki [2] [nM] |
| --- | --- | --- | --- |
| CC(C)C[C@H](NC(=O)[C@@H](NC(=O)[C@H](Cc1ccc(O)cc1)NC(=O)[C@@H]1CCCN1C(=O)[C@H](CCCCN)NC(=O)[C@@H](N)CCCNC(=N)N)C(C)(C)C)C(=O)O (H-RKPY[Tle]L-OH) | 47.9 | 7.32 |  |
| CN[C@@H](CCCNC(=N)N)C(=O)N[C@@H](CCCCN)C(=O)N1CCC[C@H]1C(=O)N[C@@H](Cc1c[nH]c2ccccc12)C(=O)N[C@H](C(=O)N[C@@H](CC(C)C)C(=O)O)C(C)(C)C (H-[NMeR]KPW[Tle]L-OH) |  |  | 5.37 |
| CC(C)C[C@H](NC(=O)[C@@H](N)C(C)(C)C)C(=O)N[C@@H](CCCNC(=N)N)C(=O)N[C@@H](CCCCN)C(=O)N1CCC[C@H]1C(=O)N[C@@H](Cc1ccc(O)cc1)C(=O)O (H-[Tle]LRKPY-OH) |  | < 4 |  |
| CC(C)C[C@@H]1NC(=O)[C@H](C(C)(C)C)NC(=O)[C@H](Cc2ccc(O)cc2)NC(=O)[C@@H]2CCCN2C(=O)[C@H](CCCCN)NC(=O)[C@H](CCCNC(=N)N)NC1=O (cyclo(KPY[Tle]LR)) | 1480 | < 4 | 1070 |
